Data taken from patent US12419308B2, “Phenylpyrazole insecticide compounds and compositions” (priority 2023, dated 2025).
Read-outs that look alike come from different tables or passages of the source.

Legend:
[1] = system: Human Cryopreserved Hepatocytes; assay: Metabolic stability in human cryopreserved hepatocytes; type: in vitro ADME
Procedure: The metabolic stability of the Compounds of Examples 1 and 4 is therefore evaluated to determine whether metabolic degradation results in metabolites of concern.
Briefly, Human Cryopreserved Hepatocytes (Gibco, lot. HUE125) are added to incubation wells in a 96-well assay plate at a density of 500,000 cells/mL in William's E Medium. […] The wells are incubated at 37° C. and stop solution is added to wells at time points: 0, 30, 60, 120, 240 min. The stop solution is ice-cold solution containing 0.5 μM labetalol in acetonitrile (100 μL/well) (2:1, vol/vol). Each time point is tested in triplicate. Analysis is carried out by LC-MS.
• Instrument: QExactive • Column: Luna Omega 1.6 μm polar C18 100 Å (150×2.1 mm) • Column temperature: 40° C. • Column No: 102+pre-column installed • Injection volume: 2 μl • Flux: 0.40 mL/min • Polarity: Negative • Fluent A: water Milli Q+0.1% FA • Fluent B: ACN+0.1% FA • Acquisition method: Full MS+DDS on the IL obtained with MassMetaSite (peak others ON).

[2] = Egg concentration analysis from topically treated chickens; type: in vivo; settings: in vivo
Procedure: One animal is left untreated as a negative control.
A modified and optimized QuEChERS protocol was employed to extract the compounds from eggs. The shell is manually removed, and then each egg is transferred to a clean beaker and homogenized with an electric mixer for small volumes. 5 grams of homogenized egg is put into a 50 mL Falcon tube, and 5 mL of water is added and the samples are shaken for 10 minutes. Next, 10 mL of acetonitrile is added and the samples are shaken again for 10 minutes. Then the roQ salts (4.0 g MgSO4, 1.0 g NaCl, 1.0 SCTD and 0.5 g SCDS, Phenomenex P/N KS08909) are added to each sample, and the mixture is well shaken for 10 minutes. Samples are then centrifuged at 2500 g for 5 minutes at room temperature, and the supernatant is transferred to an HPLC vial for analysis. The same HPLC-MS method is used as described above.
One egg from two chickens is analyzed: one chicken treated with Fipronil and one chicken treated with the Compound of Example 1. The eggs are both from Day 5. The results are shown in the following tables expressed as relative LC-MS peak area: […]

[3] = system: adult worker honeybees, Apis mellifera L; assay: Acute oral toxicity test in honeybees (OECD 213); type: in vivo
Procedure: Untreated 50% w/v sucrose solution with 0.2% of propanol-water solution (ratio 80%-20%) is used as a negative control.
The test item is diluted with aqueous sucrose solution 50% (w/v) to prepare the oral solutions. The bees used for the oral test are anesthetized with carbon dioxide for the time necessary to immobilize them and placed inside the test cages; 2 hours before the treatment they are starved. A volume of 200 μL (20 μL/bee) of treated diet is administered to each cage with a dispenser (e.g., a syringe without tip), weighed before and after filling.
The overall exposure period is 6 hours, during which consumption is monitored: the feeder is changed at the end of the six hours or once the treated diet has been consumed (usually within 3-4 hours). In both cases, the feeder is weighed and a new feeder with untreated 50% (w/v) sucrose solution is provided ad libitum, and the mean effective dose is calculated based on the actual consumption.

[4] = system: Dermanyssus gallinae; assay: Antiparasitic efficacy on live chickens with natural mite infestation; type: in vivo; settings: by day 5 of treatment; 0.25% (w/v) spray, 7.5 mg/kg once daily for 5 days
Procedure: Two animals are treated with the compound of Example 1, and two animals are treated with Fipronil, while one animal is left untreated as a negative control. The infestation by D. gallinae is monitored by checking the density of mites in particular areas of the animal's bodies (feet, legs, and wings), comparing pre-treatment levels of infestation to post-treatment levels.
When all pests have been eliminated, a 100% pest control capability was achieved. In the case of some chemical products, when the pest was not fully eliminated, the disinfestation capacity was measured by averaging the number of infesting organisms located in three distinct areas of the treated animals, at the beginning of the treatment, and at the end of the treatment.

[5] = system: adult worker honeybees, Apis mellifera L; settings: contact
Text: In accordance with OECD Test Guidelines No. 213 and 214, the test is considered valid if: (1) the average mortality of the control groups is ≤10% at the end of the test; and the average, control-corrected mortality of the reference item groups is ≥50% at the end of the test, at the tested dose (internal validity criteria according to POS BT200).
Young Apis mellifera L. worker honeybees are randomly collected in the morning of use or the day before from an adequately fed, healthy diseases-free and queen right beehive, not treated with chemical substances. Hives from an established apiary colony are used, and the colonies are inspected periodically, according to standard bee-keeping practices. All colonies are kept outside under field conditions and bees collect food from the environment. The last treatment against Varroa mites was done in November 2023. The bees are fed ad libitum with a water sucrose solution 50% w/v (or 500 g/L), prepared with tap water.
Adult worker honeybees are exposed to three increasing doses of the test item (see Table 2) by direct application to the thorax (droplets, see section 4.5.2). One control group is treated with propanol-water solution (ratio 80%-20%) in addition to test item groups.
Bee mortality is recorded after 4, 24 and 48 hours, and compared with the control value. If the mortality rate increases by more than 10% between 24 and 48 hours, whilst the control mortality rate remains ≤10%, the is extended to a maximum of 96 hours.
The test item is diluted in propanol-water solution (ratio 80%-20%) to prepare the contact solutions.
The bees used for the contact test are anaesthetized with carbon dioxide and individually treated by topical application of 2 μL of the test solutions onto the thorax using a micro applicator. The honeybees are then be moved to the cages and fed ad libitum with sucrose solution.
Disposable and well-ventilated cages with an internal volume not lower than 200 cm^3 are used. Each cage is equipped with a transparent lid, for a suitable observation of the bees from outside. The upper side of the cage has at least one hole for inserting the feeder: a syringe filled of 50% (w/v) aqueous sucrose solution is inserted in one hole.
The tests are conducted under the following conditions: (a) Temperature: 25.00[…]; (b) Relative humidity: 60.00[…], The honeybees are kept under constant darkness except during the assessments. Throughout the experimental phase, the temperature and relative humidity is continuously recorded with a dedicated data-logger with sensors located close to the test units.
The number of dead honeybees per cage is recorded after 4, 24 and 48 hours. If a prolonged observation period is required, further assessments are made every 24 hours, tip to a maximum duration of 96 hours. The amount of diet consumed per group is quantitatively estimated if treated diet will be left after 6 hours of exposure.
Data is summarized in tabular form, showing the number of live, dead and abnormal bees per experimental group. The mortality of each replicate is calculated as a percentage, comparing the number of dead bees to those introduced at the beginning. The mean value of the treated group is compared to the mean mortality of the respective control group(s) using the Abbott's formula modified by Schneider-Orelli (POS BT 200): […]

N#Cc1nn(-c2c(Cl)cc(C(F)(F)F)cc2Cl)c2nc(O)cc(C(F)F)c12 [Example 4, 1-(2,6-dichloro-4-(trifluoromethyl)phenyl)-4-(difluoromethyl)-6-hydroxy-1H-pyrazolo[3,4-b]pyridine-3-carbonitrile]
Original compound still present ([1]; after 240 minutes, 1 μM, 500,000 cells/mL, 37° C.): approximately 84.2%
Metabolic stability (in words) ([1]; human hepatocytes, up to 240 min, 1 μM): highly metabolically stable

NC(=O)c1nn(-c2c(Cl)cc(C(F)(F)F)cc2Cl)c(N)c1[S+]([O-])C(F)(F)F (stereo not drawn) [Fipronil Amide, Fipronil amide]
Relative LC-MS peak area of analyte in egg [2]: 3.8

N#Cc1nn(-c2c(Cl)cc(C(F)(F)F)cc2Cl)c(N)c1S(=O)(=O)C(F)(F)F [Fipronil Sulfone, Fipronil sulfone]
Relative LC-MS peak area of analyte in egg ([2]; chicken, 5 days): 5.6

N#Cc1nn(-c2c(Cl)cc(C(F)(F)F)cc2Cl)c(N)c1[S+]([O-])C(F)(F)F (stereo not drawn) [Fipronil, reference compound]
% CM (4 hours) ([3]; group T1, dose 0.002 μg/bee): 0.0%
% CM (24 hours) ([3]; group T1, dose 0.002 μg/bee): 20.8%
% CM (48 hours) ([3]; group T1, dose 0.002 μg/bee): 23.8%
% CM (4 hours) ([3]; group T2, dose 0.004 μg/bee): 0.0%
% CM (24 hours) ([3]; group T2, dose 0.004 μg/bee): 37.5%
% CM (48 hours) ([3]; group T2, dose 0.004 μg/bee): 33.3%
% CM (4 hours) ([3]; group T3, dose 0.006 μg/bee): 3.3%
% CM (24 hours) ([3]; group T3, dose 0.006 μg/bee): 58.3%
% CM (48 hours) ([3]; group T3, dose 0.006 μg/bee): 66.7%
Chickens free of mites [4]: 100%
Relative LC-MS peak area of analyte in egg ([2]; chicken, 5 days): 4.8
% CM (4 hours) ([5]; group T1, dose 0.002 μg/bee): 0.0%
% CM (24 hours) ([5]; group T1, dose 0.002 μg/bee): 7.1%
% CM (48 hours) ([5]; group T1, dose 0.002 μg/bee): 7.7%
% CM (4 hours) ([5]; group T2, dose 0.004 μg/bee): 0.0%
% CM (24 hours) ([5]; group T2, dose 0.004 μg/bee): 25.0%
% CM (48 hours) ([5]; group T2, dose 0.004 μg/bee): 30.8%
% CM (4 hours) ([5]; group T3, dose 0.006 μg/bee): 0.0%
% CM (24 hours) ([5]; group T3, dose 0.006 μg/bee): 71.4%
% CM (48 hours) ([5]; group T3, dose 0.006 μg/bee): 76.9%
